# Measurements published in patent publication US8487103B2 (Roche Palo Alto LLC, priority 2009, dated 2013).
# Target: T1, HCV polymerase (NS5B570n-Con1) (Hepatitis C virus genotype 1b, UniProt Q9WMX2)
# T1 construct: contains a 21 amino acid deletion at the C-terminus relative to the full-length HCV polymerase; 6-histidine (N); made in house; host or cells: E. coli BL21(DE) pLysS, plasmid pET 17b
# Test: HCV NS5B RNA Polymerase Activity
# Assay type: biochemical, HCV Con1 strain
# Protocol: The enzymatic activity of HCV polymerase (NS5B570n-Con1) was measured as the incorporation of radiolabeled nucleotide monophosphates into acid insoluble RNA products. Unincorporated radiolabeled substrate was removed by filtration and scintillant was added to the washed and dried filter plate containing radiolabeled RNA product. The amount of RNA product generated by NS5B570-Con1 at the end of the reaction was directly proportional to the amount of light emitted by the scintillant.
# The N-terminal 6-histidine tagged HCV polymerase, derived from HCV Con1 strain, genotype 1b (NS5B570n-Con1) contains a 21 amino acid deletion at the C-terminus relative to the full-length HCV polymerase and was purified from E. coli strain BL21(DE) pLysS. The construct, containing the coding sequence of HCV NS5B Con1 (GenBank accession number AJ242654) was inserted into the plasmid construct pET 17b, downstream of a T7 promoter expression cassette and transformed into E. coli. A single colony was grown overnight as a starter culture and later used inoculate 10 L of LB media supplemented with 100 μg/mL ampicillin at 37° C. Protein expression was induced by the addition of 0.25 mM isopropyl-β-D-thiogalactopyranoside (IPTG) when optical density at […] of the culture was between 0.6 and 0.8 and cells were harvested after 16 to 18 h at 30° C. NS5B570n-Con1 was purified to homogeneity using a three-step protocol including subsequent column chromatography on Ni-NTA, SP-Sepharose HP and Superdex 75 resins.
# Each 50 μL enzymatic reaction contained 20 nM RNA template derived from the complementary sequence of the Internal Ribosome Entry Site (cIRES), 20 nM NS5B570n-Con1 enzyme, 0.5 μCi of tritiated UTP (Perkin Elmer catalog no. TRK-412; specific activity: 30 to 60 Ci/mmol; stock solution concentration from 7.5×10^−5 M to 20.6×10^−6 M), 1 μM each ATP, CTP, and GTP, 40 mM Tris-HCl pH 8.0, 40 mM NaCl, 4 mM DTT (dithiothreitol), 4 mM MgCl2, and 5 μl of compound serial diluted in DMSO. Reaction mixtures were assembled in 96-well filter plates (cat #MADVN0B, Millipore Co.) and incubated for 2 h at 30° C. Reactions were stopped by addition of 10% final (v/v) trichloroacetic acid and incubated for 40 min at 4° C. Reactions were filtered, washed with 8 reaction volumes of 10% (v/v) trichloroacetic acetic acid, 4 reaction volumes of 70% (v/v) ethanol, air dried, and 25 μl of scintillant (Microscint 20, Perkin-Elmer) was added to each reaction well.
# The amount of light emitted from the scintillant was converted to counts per minute (CPM) on a Topcount® plate reader (Perkin-Elmer, Energy Range: Low, Efficiency Mode Normal, Count Time: 1 min, Background Subtract: none, Cross talk reduction: Off).
# Data was analyzed in Excel® (Microsoft) and ActivityBase® (Idbs®). The reaction in the absence of enzyme was used to determine the background signal, which was subtracted from the enzymatic reactions. Positive control reactions were performed in the absence of compound, from which the background corrected activity was set as 100% polymerase activity. All data was expressed as a percentage of the positive control. The compound concentration at which the enzyme-catalyzed rate of RNA synthesis was reduced by 50% (IC50) was calculated by fitting equation (i) to the data where“Y”
# [formula] corresponds to the relative enzyme activity (in %), “% Min” is the residual relative activity at saturating compound concentration, “% Max” is the relative maximum enzymatic activity, “X” corresponds to the compound concentration, and “S” is the Hill coefficient (or slope).
row,SMILES,IC50
1,CC(C)(C)c1cc(-c2ccc[nH]c2=O)c2ncc(-c3ccc(NS(C)(=O)=O)cc3F)nc2c1 [Compound I-8],4 nM
2,COc1ccc(-c2cc(C(C)(C)C)cc3nc(-c4ccc(NS(C)(=O)=O)cc4Cl)cnc23)c(=O)[nH]1 [Compound I-9],1 nM
3,"Cc1nc2c(-c3ccc[nH]c3=O)cc(C(C)(C)C)cc2nc1-c1ccc(NS(C)(=O)=O)cc1 [Compound I-10, N-{4-[7-tert-Butyl-3-methyl-5-(2-oxo-1,2-dihydro-pyridin-3-yl)-quinoxalin-2-yl]-phenyl}-methanesulfonamide]",21 nM
4,COc1ccc(-c2cc(C(C)(C)C)cc3nc(-c4ccc(NS(C)(=O)=O)cc4F)cnc23)c(=O)[nH]1 [Compound I-11],1 nM
5,"COc1c(C(C)(C)C)cc(-c2ccc[nH]c2=O)c2ncc(-c3ccc(NS(C)(=O)=O)cc3)cc12 [Compound I-14, N-{4-[6-tert-Butyl-5-methoxy-8-(2-oxo-1,2-dihydro-pyridin-3-yl)-quinolin-3-yl]-phenyl}-methanesulfonamide]",1 nM
6,"COc1c(C(C)(C)C)cc(-c2cc(Cl)c[nH]c2=O)c2ncc(-c3ccc(NS(C)(=O)=O)cc3)cc12 [Compound I-15, N-{4-[6-tert-Butyl-8-(5-chloro-2-oxo-1,2-dihydro-pyridin-3-yl)-5-methoxy-quinolin-3-yl]-phenyl}-methanesulfonamide]",1 nM
7,COc1c(C(C)(C)C)cc(-c2ccc[nH]c2=O)c2ncc(Br)cc12 [Compound I-16],59 nM
8,COc1c(C(C)(C)C)cc(-c2ccc[nH]c2=O)c2ncccc12 [Compound I-17],38 nM
9,COc1c(C(C)(C)C)cc(Br)c2ncc(-c3ccc(NS(C)(=O)=O)cc3)cc12 [Compound I-20],225 nM
10,"COc1c(C(C)(C)C)cc(-c2ccc[nH]c2=O)c2ncc(N3CC(CNS(C)(=O)=O)C3)c(Cl)c12 [Compound I-22, N-{1-[6-tert-Butyl-4-chloro-5-methoxy-8-(2-oxo-1,2-dihydro-pyridin-3-yl)-quinolin-3-yl]-azetidin-3-ylmethyl}-methanesulfonamide]",44 nM
11,COc1c(C(C)(C)C)cc(-c2cc(F)c[nH]c2=O)c2ncc(-c3ccc(NS(C)(=O)=O)cc3)cc12 [Compound I-23],1 nM
12,COc1c(C(C)(C)C)cc(-c2ccc(C)[nH]c2=O)c2ncc(-c3ccc(NS(C)(=O)=O)cc3)cc12 [Compound I-24],1 nM
13,"COc1c(C(C)(C)C)cc(-c2c[nH]c(=O)[nH]c2=O)c2ncc(-c3ccc(NS(C)(=O)=O)cc3)cc12 [Compound I-25, N-{4-[6-tert-Butyl-8-(2,4-dioxo-1,2,3,4-tetrahydro-pyrimidin-5-yl)-5-methoxy-quinolin-3-yl]-phenyl}-methanesulfonamide]",0.4 nM
14,COc1c(C(C)(C)C)cc(-c2ccncc2F)c2ncc(-c3ccc(NS(C)(=O)=O)cc3)cc12 [Compound I-26],1 nM
15,"COc1c(C(C)(C)C)cc(N2CCCNC2=O)c2ncc(-c3ccc(NS(C)(=O)=O)cc3)cc12 [Compound I-27, N-{4-[6-tert-Butyl-5-methoxy-8-(2-oxo-tetrahydro-pyrimidin-1-yl)-quinolin-3-yl]-phenyl}-methanesulfonamide]",0.7 nM
16,"COc1c(C(C)(C)C)cc(N2CCC(=O)NC2=O)c2ncc(-c3ccc(NS(C)(=O)=O)cc3)cc12 [Compound I-28, N-{4-[6-tert-Butyl-8-(2,4-dioxo-tetrahydro-pyrimidin-1-yl)-5-methoxy-quinolin-3-yl]-phenyl}-methanesulfonamide]",2 nM
17,"COc1c(C(F)(F)F)cc(N2CCC(=O)NC2=O)c2ncc(-c3ccc(NS(C)(=O)=O)cc3)cc12 [Compound I-29, N-{4-[8-(2,4-Dioxo-tetrahydro-pyrimidin-1-yl)-5-methoxy-6-trifluoromethyl-quinolin-3-yl]-phenyl}-methanesulfonamide]",1.8 nM
18,"COc1c(CC(F)(F)F)cc(N2CCC(=O)NC2=O)c2ncc(-c3ccc(NS(C)(=O)=O)cc3)cc12 [Compound I-30, N-{4-[8-(Dioxo-tetrahydro-pyrimidin-1-yl)-5-methoxy-6-(2,2,2-trifluoro-ethyl)-quinolin-3-yl]-phenyl}-methanesulfonamide]",17 nM
19,COc1c(C(C)(C)C)cc(N2CCC(=O)NC2=O)c2ncc(N3CC[C@H](CNS(C)(=O)=O)C3)cc12 [Compound I-31],1.8 nM
20,"Br.[2H]C([2H])([2H])C(c1cc(-c2ccc(OC)[nH]c2=O)c2ncc(-c3ccc(NS(C)(=O)=O)cc3)cc2c1OC)(C([2H])([2H])[2H])C([2H])([2H])[2H] [Compound I-32, N-{4-[6-[1,1-di(methyl-d3)ethyl-2,2,2-d3]-5-methoxy-8-(6-methoxy-2-oxo-1,2-dihydro-pyridin-3-yl)-quinolin-3-yl]-phenyl}-methanesulfonamide]",0.8 nM
21,COc1ccc(-c2cc(C3(C#N)CC3)c(OC)c3cc(-c4ccc(NS(C)(=O)=O)cc4)cnc23)c(=O)[nH]1 [Compound I-33],3.8 nM
22,"COc1ccc(-c2cc(C(C)(C)C)c(OC)c3cc(-c4ccc(NS(C)(=O)=O)cc4)cnc23)c(=O)[nH]1 [Compound I-34, N-{4-[6-tert-Butyl-5-methoxy-8-(6-methoxy-2-oxo-1,2-dihydro-pyridin-3-yl)-quinolin-3-yl]-phenyl}-methanesulfonamide]",10 nM
23,"COc1ccc(-c2cc(C(C)(C)C)c(OC)c3cc(N4CC[C@H](CNS(C)(=O)=O)C4)ccc23)c(=O)[nH]1 [Compound I-36, N-{(S)-1-[7-tert-Butyl-8-methoxy-5-(6-methoxy-2-oxo-1,2-dihydro-pyridin-3-yl)-naphthalen-2-yl]-pyrrolidin-3-ylmethyl}-methanesulfonamide]",8.4 nM
24,"COc1c(C2(C(F)F)CC2)cc(-c2ccc(C)[nH]c2=O)c2ncc(-c3ccc(NS(C)(=O)=O)cc3)cc12 [Compound I-37, N-{4-[6-(1-Difluoromethyl-cyclopropyl)-5-methoxy-8-(6-methyl-2-oxo-1,2-dihydro-pyridin-3-yl)-quinolin-3-yl]-phenyl}-methanesulfonamide]",9.9 nM
25,COc1ccc(-c2cc(C3(C(F)F)CC3)c(OC)c3cc(-c4ccc(NS(C)(=O)=O)cc4)cnc23)c(=O)[nH]1 [Compound I-38],0.6 nM
26,"COc1c(C2(C(F)F)CC2)cc(-n2ccc(=O)[nH]c2=O)c2ncc(-c3ccc(NS(C)(=O)=O)cc3)cc12 [Compound I-39, N-{4-[6-(1-Difluoromethyl-cyclopropyl)-8-(2,4-dioxo-3,4-dihydro-2H-pyrimidin-1-yl)-5-methoxy-quinolin-3-yl]-phenyl}-methanesulfonamide]",3.4 nM
27,"COc1c(C(C)(C)C)cc(-c2cc(Cl)c(C)[nH]c2=O)c2ncc(-c3ccc(NS(C)(=O)=O)cc3)cc12 [Compound I-42, N-{4-[6-tert-Butyl-8-(5-chloro-6-methyl-2-oxo-1,2-dihydro-pyridin-3-yl)-5-methoxy-quinolin-3-yl]-phenyl}-methanesulfonamide]",0.6 nM
28,"COc1c(C(C)(C)C)cc(-c2ccc[nH]c2=O)c2ncc(-c3ccc(N)nc3)cc12 [Compound I-43, 3-[3-(6-Amino-pyridin-3-yl)-6-tert-butyl-5-methoxy-quinolin-8-yl]-1H-pyridin-2-one]",2.6 nM
29,"COc1c(C(C)(C)C)cc(-c2ccc(C)[nH]c2=O)c2ncc(CCCCNS(C)(=O)=O)cc12 [Compound I-44, N-{4-[6-tert-Butyl-5-methoxy-8-(6-methyl-2-oxo-1,2-dihydro-pyridin-3-yl)-quinolin-3-yl]-butyl}-methanesulfonamide]",12.2 nM
